Measured values: ChEMBL document CHEMBL1201862, “PubChem BioAssay data set” (2004)
Activity calls are given as the source filed them.

Columns and labels:
[1] = target: G-protein coupled receptor 35 (Homo sapiens, UniProt Q9HC97); assay: inhibition of zaprinast-stimulated GPR35 beta-arrestin translocation – imaging, U2OS, beta-arrestin-GFP, zaprinast agonist, primary screen (AID 2058); format: functional;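 further: antagonist potency meaning inhibition of agonist-induced arrestin redistribution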
[2] = target: T1, Voltage-gated N-type calcium channel alpha-1B subunit/Amyloid beta A4 precursor protein-binding family A member 1 (Homo sapiens, UniProt Q00975+Q02410); format: protein assay
[3] = target: T1, Voltage-gated N-type calcium channel alpha-1B subunit/Amyloid beta A4 precursor protein-binding family A member 1; format: protein assay; remark: listed apart in the source
[4] = target: T2, Rac GTPase-activating protein 1 (Homo sapiens, UniProt Q9H0H5); assay: blockers of MgcRacGAP-driven Rac1 GTP hydrolysis – biochemical, ADP Hunter fluorescence, primary and confirmatory, confirmation (AID 624330); format: functional
T2 sequence (Q9H0H5 whole entry): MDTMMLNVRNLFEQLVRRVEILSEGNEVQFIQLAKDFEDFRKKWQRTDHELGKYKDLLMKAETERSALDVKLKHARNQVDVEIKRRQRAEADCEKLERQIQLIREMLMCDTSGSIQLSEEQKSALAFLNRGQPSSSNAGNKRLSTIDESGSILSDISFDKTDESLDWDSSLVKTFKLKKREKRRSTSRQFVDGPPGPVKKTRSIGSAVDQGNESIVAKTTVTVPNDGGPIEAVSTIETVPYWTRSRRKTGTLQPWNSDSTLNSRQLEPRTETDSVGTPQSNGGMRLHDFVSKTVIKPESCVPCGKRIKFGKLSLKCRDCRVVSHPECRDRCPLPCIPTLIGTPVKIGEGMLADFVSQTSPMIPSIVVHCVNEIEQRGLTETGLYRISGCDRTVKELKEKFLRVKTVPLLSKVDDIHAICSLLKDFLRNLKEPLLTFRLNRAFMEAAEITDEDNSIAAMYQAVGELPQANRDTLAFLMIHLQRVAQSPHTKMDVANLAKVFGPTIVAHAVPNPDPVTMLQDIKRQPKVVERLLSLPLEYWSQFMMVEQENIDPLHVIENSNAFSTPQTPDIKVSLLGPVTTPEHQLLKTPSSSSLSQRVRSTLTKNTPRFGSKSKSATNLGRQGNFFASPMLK

[5] = target: G-protein coupled receptor 55 (Homo sapiens, UniProt Q9Y2T6); assay: inhibition of LPI-stimulated GPR55 beta-arrestin translocation – imaging, U2OS, beta-arrestin-GFP, LPI agonist, primary screen (AID 2013); format: functional;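 further: antagonist potency measured as reduced agonist-driven arrestin aggregation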
Cytochrome P450 2D6 = Cytochrome P450 2D6 (Homo sapiens, UniProt P10635);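 further: CYP2D6 member of a cytochrome P450 panel assay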
Cytochrome P450 1A2 = target: T3, Cytochrome P450 1A2 (Homo sapiens, UniProt P05177);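 further: PubChem cytochrome P450 panel assay, CYP1A2 panel member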
T3 sequence (P05177 whole entry): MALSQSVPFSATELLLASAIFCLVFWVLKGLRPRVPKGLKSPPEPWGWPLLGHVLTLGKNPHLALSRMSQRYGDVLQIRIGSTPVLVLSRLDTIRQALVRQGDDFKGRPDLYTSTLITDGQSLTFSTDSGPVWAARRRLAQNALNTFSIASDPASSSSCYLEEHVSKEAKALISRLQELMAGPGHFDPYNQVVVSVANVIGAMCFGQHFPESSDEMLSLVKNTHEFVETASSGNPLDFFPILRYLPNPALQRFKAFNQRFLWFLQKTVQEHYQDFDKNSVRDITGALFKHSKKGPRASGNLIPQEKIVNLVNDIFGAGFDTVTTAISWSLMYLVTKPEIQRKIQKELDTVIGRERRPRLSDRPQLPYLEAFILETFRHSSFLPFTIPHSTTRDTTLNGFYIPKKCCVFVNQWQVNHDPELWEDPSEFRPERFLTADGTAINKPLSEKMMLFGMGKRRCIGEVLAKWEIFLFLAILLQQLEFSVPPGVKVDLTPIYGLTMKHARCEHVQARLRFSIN

Cytochrome P450 3A4 = Cytochrome P450 3A4 (Homo sapiens, UniProt P08684);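 further: CYP3A4 tested as one member of a cytochrome P450 panel screen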
Cytochrome P450 2C9 = Cytochrome P450 2C9 (Homo sapiens, UniProt P11712)
[6] = target: Eukaryotic translation initiation factor 4H (Homo sapiens, UniProt Q15056); assay: inhibitors of translation initiation factor eIF4H – SAR follow-up (AID 435011); format: functional
[7] = target: Polyadenylate-binding protein 1 (Homo sapiens, UniProt P11940); assay: PABP inhibition in translation initiation, SAR follow-up (AID 435018); format: functional
[8] = viability of uninfected HEp-2 cells – cell-based, HTS, cytotoxicity control for RSV inhibitor project, dose response (AID 2410); format: functional; details: human respiratory syncytial virus
Trypsin = Trypsin (Sus scrofa, UniProt P00761); assay: trypsin protease activity blockade – biochemical, quenched peptide fluorescence, cherry-pick, selectivity assay for Rce1 protease inhibitor project, dose response (AID 488789)
CAAX prenyl protease 2 = target: T4, CAAX prenyl protease 2 (Homo sapiens, UniProt Q9Y256); assay: inhibition of Ras-converting CAAX protease Rce1 – biochemical, yeast membranes, quenched-peptide fluorescence, cherry-pick, dose response (AID 588849)
T4 sequence (Q9Y256 whole entry): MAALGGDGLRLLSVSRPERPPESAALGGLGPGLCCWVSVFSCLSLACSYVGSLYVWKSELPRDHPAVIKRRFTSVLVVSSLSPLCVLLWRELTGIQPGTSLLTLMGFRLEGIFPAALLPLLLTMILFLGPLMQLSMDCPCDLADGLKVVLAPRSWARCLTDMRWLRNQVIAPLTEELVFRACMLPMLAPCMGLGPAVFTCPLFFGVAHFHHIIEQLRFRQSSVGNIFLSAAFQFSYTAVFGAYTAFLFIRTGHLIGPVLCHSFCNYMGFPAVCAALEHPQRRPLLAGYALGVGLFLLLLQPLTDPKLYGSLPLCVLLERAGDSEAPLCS

[9] = system: Streptococcus sp. 'group A'; assay: Streptococcus pyogenes SK(-)GAS viability under kanamycin – luminescence, BacTiterGlo, confirmation, counter-screen for streptokinase expression inhibitor project, dose response (AID 1900); format: functional, organism-based
Streptokinase A = target: T5, Streptokinase A (Streptococcus pyogenes serotype M1, UniProt P10520); assay: viability-normalized secreted streptokinase activity reduction – plasminogen activation absorbance, OD405, dose response (AID 1914); format: functional, Streptococcus pyogenes M1 GAS;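 further: secreted streptokinase activity via plasminogen activation per viability signal from cell pellet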
T5 sequence (P10520 whole entry): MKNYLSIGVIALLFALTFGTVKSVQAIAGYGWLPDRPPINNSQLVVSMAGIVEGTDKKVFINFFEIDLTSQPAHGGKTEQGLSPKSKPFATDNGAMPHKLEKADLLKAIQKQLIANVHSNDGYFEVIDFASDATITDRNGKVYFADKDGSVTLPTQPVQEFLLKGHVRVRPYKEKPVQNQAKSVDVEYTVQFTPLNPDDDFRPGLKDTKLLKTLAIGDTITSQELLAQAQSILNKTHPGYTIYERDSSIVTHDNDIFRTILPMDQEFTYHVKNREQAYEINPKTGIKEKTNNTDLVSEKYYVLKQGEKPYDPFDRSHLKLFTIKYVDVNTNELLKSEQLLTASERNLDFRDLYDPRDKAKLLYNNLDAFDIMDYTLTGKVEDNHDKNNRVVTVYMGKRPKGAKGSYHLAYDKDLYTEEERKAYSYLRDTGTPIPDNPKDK

Streptococcus = assay: GAS UMAA2166 growth inhibition – luminescence, BacTiterGlo, counter-screen for streptokinase expression inhibitor project, dose response (AID 1915); format: functional, organism-based;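 further: potency for reduction of bacterial viability or growth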
Hexokinase = Hexokinase (Trypanosoma brucei, UniProt Q38C41); assay: Confirmation assay for inhibitors of Trypanosoma brucei hexokinase 1-Analogue-first series. [Related pubchem assays (depositor defined):AID1430, AID1632, AID2516, AID2560, AID2579, AID2600, AID449725, AID492951]; format: functional
[10] = target: Glucose-6-phosphate 1-dehydrogenase (Homo sapiens, UniProt P11413); assay: inhibition of Homo sapiens G6PD, dose series – biochemical, fluorescence, selectivity assay for P. falciparum G6PD inhibitor project, dose response (AID 504792); format: functional
[11] = viability loss in HeLa cells – cytotoxicity control for MgcRacGAP inhibitor project, dose response (AID 624300); format: functional
Bcl-2-like protein 10 = Bcl-2-like protein 10 (Homo sapiens, UniProt Q9HD36); assay: Bcl-B/TR3 peptide binding disruption – biochemical, fluorescence polarization, FITC-TR3 peptide, selectivity assay for Bfl-1 inhibitor project, primary screen (AID 748);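 further: fluorescence polarization from a fluorescein-labelled TR3 peptide binding purified Bcl-B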
[12] = target: T6, Short transient receptor potential channel 4 (Mus musculus, UniProt Q9QUQ5); assay: block of DAMGO-driven TRPC4 calcium entry – cell-based, HEK293 TRPC4/mu-opioid, Fluo-4 calcium, dose response (AID 434942); format: functional;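 further: potency of inhibitors blocking the TRPC4 calcium response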
T6 sequence (Q9QUQ5 whole entry): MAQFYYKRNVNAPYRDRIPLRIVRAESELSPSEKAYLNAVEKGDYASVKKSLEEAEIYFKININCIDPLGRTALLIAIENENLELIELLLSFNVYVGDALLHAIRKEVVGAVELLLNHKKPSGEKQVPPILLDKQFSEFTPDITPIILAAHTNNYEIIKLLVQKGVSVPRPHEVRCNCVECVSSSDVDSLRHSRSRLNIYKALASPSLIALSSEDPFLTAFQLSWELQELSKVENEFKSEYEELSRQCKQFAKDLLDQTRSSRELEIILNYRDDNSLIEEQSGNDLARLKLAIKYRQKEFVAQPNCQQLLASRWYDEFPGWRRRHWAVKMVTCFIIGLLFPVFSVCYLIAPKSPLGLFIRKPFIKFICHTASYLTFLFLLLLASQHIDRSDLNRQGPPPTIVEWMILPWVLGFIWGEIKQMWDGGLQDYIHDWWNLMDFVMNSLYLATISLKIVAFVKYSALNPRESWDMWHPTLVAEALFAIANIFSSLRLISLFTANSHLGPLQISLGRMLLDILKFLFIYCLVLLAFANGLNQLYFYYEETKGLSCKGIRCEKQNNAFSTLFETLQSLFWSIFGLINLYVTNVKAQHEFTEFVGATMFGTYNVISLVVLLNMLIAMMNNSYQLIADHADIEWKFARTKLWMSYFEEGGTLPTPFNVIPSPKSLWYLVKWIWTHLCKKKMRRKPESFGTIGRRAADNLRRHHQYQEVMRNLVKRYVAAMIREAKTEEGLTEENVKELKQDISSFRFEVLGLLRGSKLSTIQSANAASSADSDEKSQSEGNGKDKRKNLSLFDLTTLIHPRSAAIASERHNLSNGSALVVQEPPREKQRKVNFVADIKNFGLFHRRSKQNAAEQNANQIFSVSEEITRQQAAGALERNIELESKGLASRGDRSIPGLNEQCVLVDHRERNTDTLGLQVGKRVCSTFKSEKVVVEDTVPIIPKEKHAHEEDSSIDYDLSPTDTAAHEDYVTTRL

Nonstructural protein 1 = Nonstructural protein 1 (Influenza A virus, UniProt Q194T2); format: functional, Influenza A virus (A/California/07/2009(H1N1))
[13] = target: Delta-type opioid receptor (Homo sapiens, UniProt P41143); assay: Counterscreen for agonists of heterodimerization of the mu 1 (OPRM1) and delta 1 (OPRD1) opioid receptors: Luminescence-based cell-based high throughput dose response assay to identify agonists of OPRD1 homodimerization. [Related pubchem assays (depositor defined):AID504326, AID504355, AID504692, AID504904, AID504905]; format: functional
Mu-type opioid receptor = Mu-type opioid receptor (Homo sapiens, UniProt P35372); assay: Counterscreen for agonists of heterodimerization of the mu 1 (OPRM1) and delta 1 (OPRD1) opioid receptors: Luminescence-based cell-based high throughput dose response assay to identify agonists of OPRM1 homodimerization.; format: functional;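 further: U2OS cells expressing OPRM1 and beta-arrestin as split beta-galactosidase partners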
[14] = target: 5-hydroxytryptamine receptor 5A (Homo sapiens, UniProt P47898); assay: Counterscreen for agonists of OPRM1-OPRD1 heterodimerization: luminescence-based cell-based high throughput dose response assay to identify agonists of 5-hydroxytryptamine (serotonin) 5A receptor (HTR5A). [Related pubchem assays (depositor defined):AID504326, AID504355, AID504692, AID504904, AID504905]; format: functional
Sequence of 5-hydroxytryptamine receptor 5A (P47898 whole entry): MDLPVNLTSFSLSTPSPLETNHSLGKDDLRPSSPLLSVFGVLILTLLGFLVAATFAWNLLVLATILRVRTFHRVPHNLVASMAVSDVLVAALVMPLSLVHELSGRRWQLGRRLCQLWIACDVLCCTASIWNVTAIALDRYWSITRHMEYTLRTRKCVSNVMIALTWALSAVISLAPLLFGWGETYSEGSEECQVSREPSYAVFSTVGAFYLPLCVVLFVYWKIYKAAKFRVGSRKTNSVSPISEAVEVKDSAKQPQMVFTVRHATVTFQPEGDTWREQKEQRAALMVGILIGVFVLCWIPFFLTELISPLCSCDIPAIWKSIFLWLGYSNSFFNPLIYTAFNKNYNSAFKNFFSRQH

Sequence of Polyadenylate-binding protein 1 (P11940 whole entry): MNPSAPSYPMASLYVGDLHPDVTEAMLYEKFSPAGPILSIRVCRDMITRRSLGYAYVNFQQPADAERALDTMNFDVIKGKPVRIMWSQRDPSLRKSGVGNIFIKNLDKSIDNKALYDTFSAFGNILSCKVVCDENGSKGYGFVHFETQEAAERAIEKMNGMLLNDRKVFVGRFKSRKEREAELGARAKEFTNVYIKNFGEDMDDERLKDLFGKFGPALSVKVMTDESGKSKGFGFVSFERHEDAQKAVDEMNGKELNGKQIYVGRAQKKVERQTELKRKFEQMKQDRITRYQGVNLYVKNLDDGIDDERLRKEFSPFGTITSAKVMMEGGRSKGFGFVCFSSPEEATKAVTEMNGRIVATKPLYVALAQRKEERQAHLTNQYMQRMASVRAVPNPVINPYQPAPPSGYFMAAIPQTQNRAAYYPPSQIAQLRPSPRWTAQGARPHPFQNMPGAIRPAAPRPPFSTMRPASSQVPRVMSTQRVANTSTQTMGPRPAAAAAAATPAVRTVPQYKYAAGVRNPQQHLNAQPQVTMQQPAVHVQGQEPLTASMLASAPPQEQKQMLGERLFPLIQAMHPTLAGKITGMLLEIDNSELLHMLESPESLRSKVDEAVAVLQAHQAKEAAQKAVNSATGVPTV
Sequence of G-protein coupled receptor 55 (Q9Y2T6 whole entry): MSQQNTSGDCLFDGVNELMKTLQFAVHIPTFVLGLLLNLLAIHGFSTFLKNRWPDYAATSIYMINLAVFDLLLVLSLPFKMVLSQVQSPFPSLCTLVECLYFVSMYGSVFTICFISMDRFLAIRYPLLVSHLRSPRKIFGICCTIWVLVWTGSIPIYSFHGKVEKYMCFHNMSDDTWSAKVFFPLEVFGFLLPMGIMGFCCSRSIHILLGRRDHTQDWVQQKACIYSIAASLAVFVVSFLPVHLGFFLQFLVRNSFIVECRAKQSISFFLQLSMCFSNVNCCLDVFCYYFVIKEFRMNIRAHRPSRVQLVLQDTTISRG
Sequence of G-protein coupled receptor 35 (Q9HC97 whole entry): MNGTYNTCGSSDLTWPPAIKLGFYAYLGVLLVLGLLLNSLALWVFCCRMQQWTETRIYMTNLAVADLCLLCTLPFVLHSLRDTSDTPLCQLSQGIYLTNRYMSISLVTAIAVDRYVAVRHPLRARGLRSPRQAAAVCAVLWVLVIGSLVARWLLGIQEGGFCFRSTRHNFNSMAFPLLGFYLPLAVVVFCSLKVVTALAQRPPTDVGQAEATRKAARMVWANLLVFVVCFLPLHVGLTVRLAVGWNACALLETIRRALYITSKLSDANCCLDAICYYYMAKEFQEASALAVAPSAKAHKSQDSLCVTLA
Sequence of Hexokinase (Q38C41 whole entry): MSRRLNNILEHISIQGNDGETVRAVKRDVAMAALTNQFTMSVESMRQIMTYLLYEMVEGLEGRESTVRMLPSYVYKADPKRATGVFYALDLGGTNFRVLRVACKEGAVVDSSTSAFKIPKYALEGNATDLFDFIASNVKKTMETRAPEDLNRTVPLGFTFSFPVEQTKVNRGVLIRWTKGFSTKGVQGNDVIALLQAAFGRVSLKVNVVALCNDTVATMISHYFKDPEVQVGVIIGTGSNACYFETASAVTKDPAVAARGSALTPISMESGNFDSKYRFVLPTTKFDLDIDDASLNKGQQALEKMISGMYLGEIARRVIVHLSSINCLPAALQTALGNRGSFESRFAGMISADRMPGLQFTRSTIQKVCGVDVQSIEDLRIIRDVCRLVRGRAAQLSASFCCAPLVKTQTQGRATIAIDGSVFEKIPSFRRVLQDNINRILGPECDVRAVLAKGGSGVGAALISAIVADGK
Sequence of Cytochrome P450 2C9 (P11712 whole entry): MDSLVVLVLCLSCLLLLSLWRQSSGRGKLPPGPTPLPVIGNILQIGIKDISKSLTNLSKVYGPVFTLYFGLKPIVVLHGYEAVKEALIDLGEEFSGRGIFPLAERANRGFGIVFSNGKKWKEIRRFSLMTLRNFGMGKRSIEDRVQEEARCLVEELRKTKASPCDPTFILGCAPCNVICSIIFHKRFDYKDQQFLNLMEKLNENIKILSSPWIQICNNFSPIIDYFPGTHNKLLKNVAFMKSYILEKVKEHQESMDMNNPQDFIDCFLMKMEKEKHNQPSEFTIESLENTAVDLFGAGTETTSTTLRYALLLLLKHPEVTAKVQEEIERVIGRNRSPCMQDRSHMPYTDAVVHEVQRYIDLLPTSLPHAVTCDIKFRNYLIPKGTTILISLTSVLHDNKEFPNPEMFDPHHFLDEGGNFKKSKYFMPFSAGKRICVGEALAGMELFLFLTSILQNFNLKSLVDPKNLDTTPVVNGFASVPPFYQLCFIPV
Sequence of Glucose-6-phosphate 1-dehydrogenase (P11413 whole entry): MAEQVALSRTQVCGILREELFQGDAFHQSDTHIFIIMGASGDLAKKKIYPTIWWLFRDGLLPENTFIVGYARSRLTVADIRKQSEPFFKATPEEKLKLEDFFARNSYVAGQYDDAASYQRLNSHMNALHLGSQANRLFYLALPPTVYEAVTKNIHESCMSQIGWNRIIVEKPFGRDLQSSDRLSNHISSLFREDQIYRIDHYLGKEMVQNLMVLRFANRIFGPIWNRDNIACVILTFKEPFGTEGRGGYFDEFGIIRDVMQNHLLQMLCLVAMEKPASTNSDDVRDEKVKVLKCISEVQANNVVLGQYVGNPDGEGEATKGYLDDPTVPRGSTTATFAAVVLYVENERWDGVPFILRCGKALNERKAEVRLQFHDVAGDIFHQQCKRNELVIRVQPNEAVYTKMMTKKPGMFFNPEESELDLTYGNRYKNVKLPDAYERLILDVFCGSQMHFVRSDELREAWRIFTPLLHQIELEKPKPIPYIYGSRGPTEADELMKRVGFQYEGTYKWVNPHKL
Sequence of Delta-type opioid receptor (P41143 whole entry): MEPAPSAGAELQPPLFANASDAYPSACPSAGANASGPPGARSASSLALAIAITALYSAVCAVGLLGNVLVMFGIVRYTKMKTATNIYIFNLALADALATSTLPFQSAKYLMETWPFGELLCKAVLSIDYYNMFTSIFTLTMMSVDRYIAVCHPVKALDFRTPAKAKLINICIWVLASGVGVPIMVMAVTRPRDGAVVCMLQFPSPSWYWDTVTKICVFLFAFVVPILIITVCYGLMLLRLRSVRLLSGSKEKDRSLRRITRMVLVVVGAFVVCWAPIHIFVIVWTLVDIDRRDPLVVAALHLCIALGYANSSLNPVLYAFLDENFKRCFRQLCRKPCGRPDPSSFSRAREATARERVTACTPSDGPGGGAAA
Sequence of Cytochrome P450 2D6 (P10635 whole entry): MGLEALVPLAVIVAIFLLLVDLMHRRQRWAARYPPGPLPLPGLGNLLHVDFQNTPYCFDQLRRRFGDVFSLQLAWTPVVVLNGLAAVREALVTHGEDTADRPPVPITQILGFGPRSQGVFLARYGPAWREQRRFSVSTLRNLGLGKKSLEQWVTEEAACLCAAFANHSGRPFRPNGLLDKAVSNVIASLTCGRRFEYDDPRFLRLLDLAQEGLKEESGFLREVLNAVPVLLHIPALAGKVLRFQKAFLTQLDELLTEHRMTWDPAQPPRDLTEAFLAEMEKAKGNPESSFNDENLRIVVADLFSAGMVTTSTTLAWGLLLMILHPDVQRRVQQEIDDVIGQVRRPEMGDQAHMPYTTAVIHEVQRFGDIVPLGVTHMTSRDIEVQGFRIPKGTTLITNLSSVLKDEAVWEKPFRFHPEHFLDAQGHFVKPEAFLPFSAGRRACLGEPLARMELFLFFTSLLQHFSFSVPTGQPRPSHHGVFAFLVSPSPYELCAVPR
Sequence of Trypsin (P00761 whole entry): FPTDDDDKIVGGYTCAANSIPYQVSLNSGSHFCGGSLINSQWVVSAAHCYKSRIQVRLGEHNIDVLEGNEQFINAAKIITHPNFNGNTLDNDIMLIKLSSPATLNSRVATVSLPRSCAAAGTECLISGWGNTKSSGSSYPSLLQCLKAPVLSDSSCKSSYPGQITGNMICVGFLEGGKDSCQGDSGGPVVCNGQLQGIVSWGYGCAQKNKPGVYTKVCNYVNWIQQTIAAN
Sequence of Nonstructural protein 1 (Q194T2 whole entry): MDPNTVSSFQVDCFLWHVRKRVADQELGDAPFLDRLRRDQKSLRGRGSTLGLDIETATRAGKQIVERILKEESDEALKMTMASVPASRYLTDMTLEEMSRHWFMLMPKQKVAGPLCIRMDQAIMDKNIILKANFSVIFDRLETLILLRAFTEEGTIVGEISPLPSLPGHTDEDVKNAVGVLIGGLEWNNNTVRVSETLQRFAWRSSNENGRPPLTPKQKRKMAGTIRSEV
Sequence of Bcl-2-like protein 10 (Q9HD36 whole entry): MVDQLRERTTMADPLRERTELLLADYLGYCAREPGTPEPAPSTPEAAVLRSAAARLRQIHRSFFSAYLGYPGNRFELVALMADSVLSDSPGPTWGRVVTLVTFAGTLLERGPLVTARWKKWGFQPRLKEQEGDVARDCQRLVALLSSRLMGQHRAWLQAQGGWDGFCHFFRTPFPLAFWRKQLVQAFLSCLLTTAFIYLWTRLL

## CN(C)c1ccc(/C=C2\NC(=S)N(Cc3ccccc3)C2=O)cc1
[1]
  IC50: 0.651 µM (active)

## Cc1cccc(NC(=S)NCc2ccco2)n1
[2]
  IC50: 6.94 µM (active)
[3]
  IC50: > 50 µM (inactive)

## N#C/C(=C/c1ccc(N2CCOCC2)o1)c1nc2ccccc2[nH]1
[1]
  IC50: 2.41 µM (active)
[4]
  IC50: 20.4 µM (active)

## NC1=C(c2nc(-c3ccc(F)cc3)cs2)C(=O)CN1CCCN1CCOCC1
[5]
  IC50: 9.02 µM (active)
Cytochrome P450 2D6
  AC50: 28.2 µM (inconclusive)
Cytochrome P450 1A2
  AC50: 15.8 µM (inconclusive)
Cytochrome P450 3A4
  AC50: 10 µM (inconclusive)
Cytochrome P450 2C9
  AC50: 28.2 µM (inconclusive)

## O=C(CSc1ccc(-c2ccco2)nn1)NCc1ccccc1
[6]
  IC50: 57 µM (active)
[7]
  IC50: > 100 µM (inactive)

## COc1ccc(N=C2SC(C(=O)Nc3ccc(F)cc3)CC(=O)N2C)cc1 (configuration not stated)
[6]
  IC50: > 100 µM (inactive)
[7]
  IC50: > 100 µM (inactive)

## NC(=O)c1sc2nc(N3CCCCC3)c3c(c2c1N)CCCC3
[8]
  CC50: 15.6 µM (active)
Trypsin
  AC50: 3.58 µM (active)
CAAX prenyl protease 2
  AC50: 7.04 µM (active)

## c1ccc(-c2noc(-c3ccccc3-c3ccccc3)n2)cc1
[9]
  EC50: 11.8 µM (active)
Streptokinase A
  EC50: 21.5 µM (active)
[5]
  IC50: 6.09 µM (active)
Streptococcus
  EC50: > 150 µM (not active)

## O=c1c2cc(F)ccc2sn1-c1ccccc1Cl
Hexokinase
  IC50: 2.33 µM (active)
[10]
  IC50: 15.9 µM (active)
[11]
  CC50: 71.9 µM (active)
[4]
  IC50: 35 µM (active)

## O=C(Nc1cc(Cl)ccc1C(=O)O)c1ccc(-c2cccs2)cc1
Hexokinase
  IC50: > 25 µM (inactive)

## CC(=O)Nc1ccc(S(=O)(=O)NC2=C(N3CCN(Cc4ccccc4)CC3)C(=O)c3ccccc3C2=O)cc1
Bcl-2-like protein 10
  IC50: 77.9 µM (inactive)
[12]
  EC50: 1.06 µM (active)
Nonstructural protein 1
  IC50: 21.4 µM (active)
[13]
  EC50: > 92.4 µM (inactive)
Mu-type opioid receptor
  EC50: > 92.4 µM (inactive)
[14]
  EC50: > 92.4 µM (inactive)
